Converted amounts (≈) assume the structure as drawn. Where a name gives a salt, the structure may show the parent alone. Read-outs that look alike come from different tables or passages of the source.
Key:
HepG2 cells = assay: HepG2 cytotoxicity assay (resazurin); type: cell-based
[1] = tested on: M. tuberculosis standard strain Mtb H37Rv; assay: MIC determination against mycobacteria (resazurin microtiter assay); type: cell-based, Mycobacterium tuberculosis; conditions: for MIC: Mycobacterium tuberculosis, H37RV, read-out: Mtb H37Rv MIC (B); for Selectivity Index (A/B): HepG2 cell 48 h Tox50 (A) / Mtb H37Rv MIC (B)
Mtb LeuRS = Mtb LeuRS (Mycobacterium tuberculosis, UniProt P9WFV1); assay: LeuRS aminoacylation assay, IC50 determination; type: biochemical, M. tuberculosis; conditions: read-out: Mtb LeuRS IC50
Mtb LeuRS, sequence (P9WFV1 whole entry): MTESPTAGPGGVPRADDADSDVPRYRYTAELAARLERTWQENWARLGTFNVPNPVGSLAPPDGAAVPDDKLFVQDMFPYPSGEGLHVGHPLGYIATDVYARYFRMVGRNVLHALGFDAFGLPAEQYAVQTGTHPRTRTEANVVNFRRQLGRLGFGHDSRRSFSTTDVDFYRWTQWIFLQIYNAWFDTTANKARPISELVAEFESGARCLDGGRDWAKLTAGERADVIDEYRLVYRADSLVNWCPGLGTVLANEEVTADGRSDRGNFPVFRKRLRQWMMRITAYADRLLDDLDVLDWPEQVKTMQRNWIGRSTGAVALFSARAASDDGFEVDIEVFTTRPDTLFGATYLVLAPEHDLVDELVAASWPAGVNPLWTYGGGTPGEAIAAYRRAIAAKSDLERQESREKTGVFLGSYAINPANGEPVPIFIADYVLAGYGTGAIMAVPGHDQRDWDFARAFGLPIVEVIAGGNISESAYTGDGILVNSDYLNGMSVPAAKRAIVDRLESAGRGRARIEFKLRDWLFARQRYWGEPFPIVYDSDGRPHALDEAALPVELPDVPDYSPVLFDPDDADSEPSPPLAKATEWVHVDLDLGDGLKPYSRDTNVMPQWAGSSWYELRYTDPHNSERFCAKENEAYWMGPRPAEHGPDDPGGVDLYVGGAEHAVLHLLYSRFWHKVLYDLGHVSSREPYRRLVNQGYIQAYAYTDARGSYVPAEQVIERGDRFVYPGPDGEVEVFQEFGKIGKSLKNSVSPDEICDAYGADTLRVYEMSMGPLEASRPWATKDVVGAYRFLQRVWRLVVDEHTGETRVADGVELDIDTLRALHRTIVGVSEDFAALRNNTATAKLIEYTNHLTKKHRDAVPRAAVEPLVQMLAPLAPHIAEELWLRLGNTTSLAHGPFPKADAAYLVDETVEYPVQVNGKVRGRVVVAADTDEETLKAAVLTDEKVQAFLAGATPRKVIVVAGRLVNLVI
Protocol: For biochemical analyses an N-terminal six histidine-tagged LeuRS was over-expressed in Escherichia coli which were E. coli codon-optimised (GenScript, Piscataway N.J., USA), from human mitochondria and cytoplasm, and M. tuberculosis. N-terminal six histidine-tagged LeuRS proteins were over-expressed and purified according to Novagen (Madison, Wis., USA) using an E. coli BL21(DE3) T7 RNA polymerase over-expression strain.
Experiments were performed in 96-well microtiter plates, using 80 μL reaction mixtures containing 50 mM HEPES-KOH (pH 8.0), 30 mM MgCl2 30 mM KCl, 13 μM L-[^14C]leucine (306 mCi/mmol, Perkin-Elmer), 15 uM total E. coli tRNA (Roche, Switzerland), 0.02% (w/v) BSA, 1 mM DTT, 0.2 μM LeuRS and 4 mM ATP at 30° C. Reactions were started by the addition of 4 mM ATP. After 7 minutes, reactions were quenched and tRNA was precipitated by the addition of 50 μL of 10% (w/v) TCA and transferred to 96-well nitrocellulose membrane filter plates (Millipore Multiscreen HTS, MSHAN4B50). Each well was then washed three times with 100 μL of 5% TCA. Filter plates were then dried under a heat lamp and the precipitated L-[^14C]leucine tRNALeu were quantified by liquid scintillation counting using a Wallac MicroBeta Trilux model 1450 liquid scintillation counter (PerkinElmer, Waltham, Mass., USA). The only difference was with the human cytoplasmic LeuRS when we used tRNA isolated from Brewer's Yeast (Roche Diagnostics GmbH).
Reactions were initiated by the addition of 4 mM ATP. Reactions were stopped after 7 minutes then precipitated and counted to quantify radioactivity. IC50 values were determined using the Graphpad Prism software package (Graphpad Software Inc. (La Jolla, Calif., USA).

A. baumannii ATCC 17978 = assay: General antimicrobial activity assay (CLSI broth microdilution); type: cell-based; conditions: Acinetobacter baumannii, ATCC17978, read-out: MIC: A. baumannii ATCC 17978
Protocol: (§1) Whole-cell antimicrobial activity was determined by broth microdilution using the Clinical and Laboratory Standards Institute (CLSI) recommended procedure, Document M7-A7, “Methods for Dilution Susceptibility Tests for Bacteria that Grow Aerobically”.

E. coli K12 tolC::Tn10 = assay: as above; type: cell-based; conditions: Escherichia coli, read-out: MIC: E. coli K12 tolC::Tn10
Protocol: as §1

E. coli K12 = assay: as above; type: cell-based; conditions: Escherichia coli, K12, read-out: MIC: E. coli K12
Protocol: as §1

P. aeruginosa PA01 = assay: as above; type: cell-based; conditions: Pseudomonas aeruginosa, PA01, read-out: MIC: P. aeruginosa PA01
Protocol: as §1

Human cyto LeuRS = Human cyto LeuRS (Homo sapiens, UniProt Q9P2J5); assay: LeuRS aminoacylation assay, IC50 determination; type: biochemical
Human cyto LeuRS, sequence (Q9P2J5 whole entry): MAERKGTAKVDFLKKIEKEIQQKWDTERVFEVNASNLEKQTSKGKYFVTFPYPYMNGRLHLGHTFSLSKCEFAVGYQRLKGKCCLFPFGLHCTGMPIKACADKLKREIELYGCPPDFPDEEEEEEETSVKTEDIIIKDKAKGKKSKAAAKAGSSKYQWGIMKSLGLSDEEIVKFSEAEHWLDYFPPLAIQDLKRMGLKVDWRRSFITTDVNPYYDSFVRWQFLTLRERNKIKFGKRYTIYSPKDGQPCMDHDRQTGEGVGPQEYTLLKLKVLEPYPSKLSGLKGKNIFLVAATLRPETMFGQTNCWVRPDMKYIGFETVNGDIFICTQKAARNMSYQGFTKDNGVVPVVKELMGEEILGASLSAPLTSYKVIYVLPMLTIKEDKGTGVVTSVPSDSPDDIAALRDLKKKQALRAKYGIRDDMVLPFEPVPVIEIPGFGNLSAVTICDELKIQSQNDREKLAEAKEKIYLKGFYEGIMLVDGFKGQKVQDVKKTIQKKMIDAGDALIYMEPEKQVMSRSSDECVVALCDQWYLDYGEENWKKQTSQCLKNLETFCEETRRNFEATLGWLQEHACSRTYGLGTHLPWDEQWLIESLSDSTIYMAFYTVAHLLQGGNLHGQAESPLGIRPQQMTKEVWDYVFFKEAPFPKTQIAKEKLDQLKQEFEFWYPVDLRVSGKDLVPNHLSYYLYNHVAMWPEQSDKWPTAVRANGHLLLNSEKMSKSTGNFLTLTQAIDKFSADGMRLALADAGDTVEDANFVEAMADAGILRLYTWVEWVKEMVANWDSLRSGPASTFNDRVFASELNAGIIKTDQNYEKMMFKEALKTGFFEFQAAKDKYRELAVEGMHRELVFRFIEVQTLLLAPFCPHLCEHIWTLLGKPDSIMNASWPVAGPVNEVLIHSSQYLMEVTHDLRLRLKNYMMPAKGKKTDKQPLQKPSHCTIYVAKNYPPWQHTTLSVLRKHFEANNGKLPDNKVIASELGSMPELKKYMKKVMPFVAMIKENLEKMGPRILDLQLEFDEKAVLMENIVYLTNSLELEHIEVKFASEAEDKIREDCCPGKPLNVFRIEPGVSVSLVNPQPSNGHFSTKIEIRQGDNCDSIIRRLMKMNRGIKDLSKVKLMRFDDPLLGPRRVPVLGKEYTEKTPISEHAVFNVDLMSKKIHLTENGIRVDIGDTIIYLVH

[2] = Homo sapiens, HepG2, 48 h, read-out: HepG2 cell 48 h Tox50 (A)

SMILES	IC50 (HepG2 cells; [2])	MIC [1]	IC50 (Mtb LeuRS)	MIC (A. baumannii ATCC 17978)	MIC (E. coli K12 tolC::Tn10)	MIC (E. coli K12)	MIC (P. aeruginosa PA01)	Selectivity Index (A/B) [1]	other results
Cl.NCC1OB2OCCOc3ccc(Br)c1c32 (racemic) [Example 1, 3-bromo-7,8-dihydro-2H-1,6,9-trioxa-9a-borabenzo[cd]azulen-2-yl)methanamine hydrochloride]	> 50 µM	0.18 µM	0.154 µM						
Cl.NCC1OB2OCCOc3ccc(Br)c1c32 (racemic) [Example 1]				> 64 µg/mL	> 64 µg/mL	> 64 µg/mL	> 64 µg/mL		Selectivity Index (A/B) ([1]; listed as EXAMPLE 1 G1-Br, hydrochloride): >277; Selectivity Index (A/B) ([1]; listed as Example 1 G1-Br, hydrochloride): > 277
Cl.NCC1OB2OCCOc3ccc(Cl)c1c32 (racemic) [Example 3, 3-chloro-7,8-dihydro-2H-1,6,9-trioxa-9a-borabenzo[cd]azulen-2-yl)methanamine hydrochloride]	> 50 µM	0.47 µM	0.244 µM						
Cl.NCC1OB2OCCOc3ccc(Cl)c1c32 (racemic) [Example 3]				> 64 µg/mL	> 64 µg/mL	> 64 µg/mL	> 64 µg/mL		Selectivity Index (A/B) ([1]; listed as EXAMPLE 3 G3-Br, hydrochloride): >106; Selectivity Index (A/B) ([1]; listed as Example 3 G3-CI, hydrochloride): > 106
C[C@@]1(CO)COc2ccc(Cl)c3c2B(OC3CN)O1 (single isomer, unassigned) [Example 14, ((2S,8R or 2R,8S)-2-(aminomethyl)-3-chloro-8-methyl-7,8-dihydro-2H-1,6,9-trioxa-9a-borabenzo[cd]azulen-8-yl)methanol]	> 50 µM	1.25 µM (≈ 0.354 µg/mL)	4.17 µM					>4	
Cl.NCC1OB2OCCOc3ccc(F)c1c32 (stereo not drawn) [Example 5, (3-fluoro-7,8-dihydro-2H-1,6,9-trioxa-9a-borabenzo[cd]azulen-2-yl)methanamine hydrochloride)]	49.1 µM	0.6 µM	0.46 µM						
Cl.NCC1OB2OCCOc3ccc(F)c1c32 (stereo not drawn) [Example 5]				> 64 µg/mL	64 µg/mL	32 µg/mL	4 µg/mL		
NC[C@H]1OB2OCCOc3ccc(I)c1c32 [Example 6, (S)-(3-iodo-7,8-dihydro-2H-1,6,9-trioxa-9a-borabenzo[cd]azulen-2-yl)methanamine hydrochloride]	36.4 µM	0.3 µM	0.33 µM						
CC1COc2ccc(Cl)c3c2B(O1)OC3CN.Cl (stereo not drawn) [Example 7, (3-chloro-8-methyl-7,8-dihydro-2H-1,6,9-trioxa-9a-borabenzo[cd]azulen-2-yl)methanamine hydrochloride]	> 50 µM	0.2 µM	1.08 µM	> 64 µg/mL	> 64 µg/mL	> 64 µg/mL	> 64 µg/mL	>250	IC50 (Human cyto LeuRS): > 300 µM
CC1COc2ccc(Br)c3c2B(O1)OC3CN.Cl (stereo not drawn) [Example 8, (3-bromo-8-methyl-7,8-dihydro-2H-1,6,9-trioxa-9a-borabenzo[cd]azulen-2-yl)methanamine hydrochloride]	> 50 µM	0.3 µM	1.43 µM	> 64 µg/mL	> 64 µg/mL	> 64 µg/mL	> 64 µg/mL	>167	IC50 (Human cyto LeuRS): > 300 µM
CC1(C)COc2ccc(Br)c3c2B(OC3CN)O1.Cl (stereo not drawn) [Example 9, (3-bromo-8,8-dimethyl-7,8-dihydro-2H-1,6,9-trioxa-9a-borabenzo[cd]azulen-2-yl)methanamine hydrochloride]	> 50 µM	0.3 µM	1.25 µM	> 64 µg/mL	> 64 µg/mL	> 64 µg/mL	> 64 µg/mL		IC50 (Human cyto LeuRS): > 300 µM; Selectivity Index (A/B) ([1]; listed as EXAMPLE 9 G9-Br, hydrochloride): >167; Selectivity Index (A/B) ([1]; listed as Example 9 G9-Br, hydrochloride): > 167
Cl.NC[C@H]1OB2O[C@H](CO)COc3ccc(F)c1c32 [Example 13, ((2S,8R)-2-(aminomethyl)-3-fluoro-7,8-dihydro-2H-1,6,9-trioxa-9a-borabenzo[cd]azulen-8-yl)methanol hydrochloride]	> 50 µM	0.55 µM	0.48 µM					>10	
C[C@]1(CO)COc2ccc(Cl)c3c2B(OC3CN)O1 (stereo partly drawn) [Example 15, ((2S,8S, or 2R,8R)-2-(aminomethyl)-3-chloro-8-methyl-7,8-dihydro-2H-1,6,9-trioxa-9a-borabenzo[cd]azulen-8-yl)methanol]	> 50 µM	0.93 µM (≈ 0.264 µg/mL)	3.13 µM					>50	
C[C@@]1(CO)COc2ccc(Br)c3c2B(OC3CN)O1 (stereo partly drawn) [Example 16, ((2S,8R, or 2R,8S)-2-(aminomethyl)-3-bromo-8-methyl-7,8-dihydro-2H-1,6,9-trioxa-9a-borabenzo[cd]azulen-8-yl)methanol]	> 50 µM	1.25 µM (≈ 0.41 µg/mL)	2.69 µM					>40	
C[C@]1(CO)COc2ccc(Br)c3c2B(O[C@@H]3CN)O1 [Example 17, ((2S,8S, or 2R,8R)-2-(aminomethyl)-3-bromo-8-methyl-7,8-dihydro-2H-1,6,9-trioxa-9a-borabenzo[cd]azulen-8-yl)methanol]	> 50 µM	0.925 µM (≈ 0.303 µg/mL)	1.97 µM					>50	
c1cc2c3c(c1)OCCOB3OC2 [Example C1-H, reference compound]			12.2 µM						IC50 (Human cyto LeuRS): 101 µM
NCCOc1cccc2c1B(O)OC2 [Example C3-H, reference compound]			17.6 µM					>0.8	IC50 (Human cyto LeuRS): 35.7 µM; IC50 (HepG2 cells; Homo sapiens, HepG2, 48 h; read-out: HepG2 cell 48 h Tox50 (A)): > 50 µM
CC1COc2c(Cl)cc(Cl)c3c2B(O1)OC3CN (stereo not drawn) [Example C7-Cl2, reference compound]	> 50 µM		7.97 µM					>20	
CC1(C)COc2c(Cl)ccc3c2B(OC3CN)O1 (stereo not drawn) [Example C8-Cl, reference compound]	> 50 µM	> 5 µM	6.05 µM					10	
CC1(C)COB2OC(CN)c3c(Cl)ccc(c32)O1 (stereo not drawn) [Example C9-Cl, reference compound]	> 50 µM		37.6 µM					>10	Selectivity Index (A/B) ([1]; listed as C9-CI): 10
CC1(C)COB2OC(CN)c3cccc(c32)O1 (stereo not drawn) [Example C10-H, reference compound]	> 50 µM	> 5 µM	> 300 µM						
CC1COc2cccc3c2B(O1)OC3CN (stereo not drawn) [Example C11-H, reference compound]	> 50 µM		0.51 µM	4 µg/mL (≈ 18.3 µM)	2 µg/mL (≈ 9.13 µM)	2 µg/mL (≈ 9.13 µM)	2 µg/mL (≈ 9.13 µM)	>32	
CC1(C)COc2cccc3c2B(OC3CN)O1 (stereo not drawn) [Example C12-H, reference compound]	24.5 µM	> 5 µM	1.33 µM	4 µg/mL (≈ 17.2 µM)	2 µg/mL (≈ 8.58 µM)	4 µg/mL (≈ 17.2 µM)	16 µg/mL (≈ 68.6 µM)	>4.9	
NC[C@H]1OB2OCCOc3c(Cl)ccc1c32 [Example C13-Cl, reference compound]	> 50 µM							>10	
NC[C@H]1OB2OCCOc3c(Cl)cc(Cl)c1c32 [Example C14-Cl2, reference compound]	> 50 µM	> 5 µM	4.67 µM					>10	

— US20180037595A1, “BENZOXABOROLE COMPOUNDS AND USES THEREOF” (GLAXOSMITHKLINE INTELLECTUAL PROPERTY (NO.2) LIMITED, priority 2015, published 2018)
